T1: paAzoR1 (Pseudomonas aeruginosa, UniProt Q9I5F3)
T1 sequence (Q9I5F3 1-212): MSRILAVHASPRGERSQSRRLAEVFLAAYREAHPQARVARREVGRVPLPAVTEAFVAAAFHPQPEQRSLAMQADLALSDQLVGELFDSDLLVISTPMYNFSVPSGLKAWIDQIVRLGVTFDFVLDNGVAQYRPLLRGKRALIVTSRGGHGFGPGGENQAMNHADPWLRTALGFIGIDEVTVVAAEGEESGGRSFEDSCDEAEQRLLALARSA


Key:
paAzoR1 = target: T1, paAzoR1; experiment: X-ray crystal structure, […] Å; format: binding; settings: complex with nitrofurazone; FMN in active site
purified protein = substrate: NC(=O)N/N=C/c1ccc([N+](=O)[O-])o1; experiment: purified protein; settings: 750 μM NADPH, 20 mM Tris-HCl pH 8.0, 100 mM NaCl

Row | Molecule | X-ray crystal structure, 2.08 Å (paAzoR1) | Km (purified protein)
1 | Cc1cc2nc3c(=O)[nH]c(=O)nc-3n(C[C@H](O)[C@H](O)[C@H](O)COP(=O)(O)O)c2cc1C [FMN] | The FMN is shown with yellow carbon atoms | –
2 | paAzoR1 (Pseudomonas aeruginosa PAO1) (protein) MSRILAVHASPRGERSQSRRLAEVFLAAYREAHPQARVARREVGRVPLPAVTEAFVAAAFHPQPEQRSLAMQADLALSDQLVGELFDSDLLVISTPMYNFSVPSGLKAWIDQIVRLGVTFDFVLDNGVAQYRPLLRGKRALIVTSRGGHGFGPGGENQAMNHADPWLRTALGFIGIDEVTVVAAEGEESGGRSFEDSCDEAEQRLLALARSA | – | 15.7 ± 1.6 µM

Reference: article PMC3216550 (Scientific Reports, 2011)
